Data: PubChem BioAssay (NCI)
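Cultured in 96-well plates, cells were exposed to test compound for 48 hours across five concentrations. TGI marks complete inhibition of growth.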

How the values were obtained:
Assay in all cases: NCI tumour cell line growth inhibition, 48 h
[1] = test system: 786-0 renal
[2] = test system: A498 renal
[3] = test system: A549 NSCLC
[4] = test system: ACHN renal
[5] = test system: CAKI-1 renal
[6] = test system: CCRF-CEM leukemia
[7] = test system: COLO 205 colon
[8] = test system: DLD-1 colon
[9] = test system: DMS 114 small cell lung
[10] = test system: DMS 273 small cell lung
[11] = test system: EKVX NSCLC
[12] = test system: HCC-2998 colon
[13] = test system: HCT-116 colon
[14] = test system: HCT-15 colon
[15] = test system: HL-60(TB) leukemia
[16] = test system: HOP-18 NSCLC
[17] = test system: HOP-92 NSCLC
[18] = test system: HT29 colon
[19] = test system: IGROV1 ovarian
[20] = test system: K-562 leukemia
[21] = test system: KM20L2 colon
[22] = test system: LOX IMVI melanoma
[23] = test system: LXFL 529 NSCLC
[24] = test system: M14 melanoma
[25] = test system: M19-MEL melanoma
[26] = test system: MALME-3M melanoma
[27] = test system: MOLT-4 leukemia
[28] = test system: NCI-H226 lung
[29] = test system: NCI-H23 lung
[30] = test system: OVCAR-3 ovarian
[31] = test system: OVCAR-4 ovarian
[32] = test system: OVCAR-8 ovarian
[33] = test system: RPMI-8226 leukemia
[34] = test system: RXF 393 renal
[35] = test system: RXF-631 renal
[36] = test system: SF-268 CNS
[37] = test system: SF-295 CNS
[38] = test system: SF-539 CNS
[39] = test system: SK-MEL-28 melanoma
[40] = test system: SK-MEL-5 melanoma
[41] = test system: SK-OV-3 ovarian
[42] = test system: SN12C renal
[43] = test system: SNB-19 CNS
[44] = test system: SNB-75 CNS
[45] = test system: SNB-78 CNS
[46] = test system: SR leukemia
[47] = test system: SW-620 colon
[48] = test system: U251 CNS
[49] = test system: UACC-257 melanoma
[50] = test system: UACC-62 melanoma
[51] = test system: UO-31 renal
[52] = test system: XF 498 CNS
[53] = test system: HOP-62 NSCLC
[54] = test system: KM12 colon
[55] = test system: NCI-H460 lung
[56] = test system: NCI-H522 lung
[57] = test system: OVCAR-5 ovarian
[58] = test system: SK-MEL-2 melanoma
[59] = test system: TK-10 renal

C/C(=N/O)c1sc(-c2nc(C)c(/C(C)=N\O)s2)nc1C
TGI [1]: > 100 µM
TGI [2]: > 100 µM
TGI [3]: > 100 µM
TGI [4]: > 100 µM
TGI [5]: > 100 µM
TGI [6]: > 100 µM
TGI [7]: > 100 µM
TGI [8]: > 100 µM
TGI [9]: > 100 µM
TGI [10]: > 100 µM
TGI [11]: > 100 µM
TGI [12]: > 100 µM
TGI [13]: > 100 µM
TGI [14]: > 100 µM
TGI [15]: > 100 µM
TGI [16]: > 100 µM
TGI [17]: > 100 µM
TGI [18]: > 100 µM
TGI [19]: > 100 µM
TGI [20]: > 100 µM
TGI [21]: > 100 µM
TGI [22]: > 100 µM
TGI [23]: > 100 µM
TGI [24]: > 100 µM
TGI [25]: > 100 µM
TGI [26]: > 100 µM
TGI [27]: > 100 µM
TGI [28]: > 100 µM
TGI [29]: > 100 µM
TGI [30]: > 100 µM
TGI [31]: > 100 µM
TGI [32]: > 100 µM
TGI [33]: > 100 µM
TGI [34]: > 100 µM
TGI [35]: > 100 µM
TGI [36]: > 100 µM
TGI [37]: > 100 µM
TGI [38]: > 100 µM
TGI [39]: > 100 µM
TGI [40]: > 100 µM
TGI [41]: > 100 µM
TGI [42]: > 100 µM
TGI [43]: > 100 µM
TGI [44]: > 100 µM
TGI [45]: > 100 µM
TGI [46]: > 100 µM
TGI [47]: > 100 µM
TGI [48]: > 100 µM
TGI [49]: > 100 µM
TGI [50]: > 100 µM
TGI [51]: > 100 µM
TGI [52]: > 100 µM

O=C1C(c2ccccc2)=C(c2ccccc2)C(c2ccc(Sc3ccc(C4=C(c5ccccc5)C(=O)C(c5ccccc5)=C4c4ccccc4)cc3)cc2)=C1c1ccccc1
TGI [1]: > 100 µM
TGI [2]: > 100 µM
TGI [3]: > 100 µM
TGI [5]: > 100 µM
TGI [6]: > 100 µM
TGI [7]: > 100 µM
TGI [8]: > 100 µM
TGI [9]: > 100 µM
TGI [10]: > 100 µM
TGI [11]: > 100 µM
TGI [13]: > 100 µM
TGI [14]: > 100 µM
TGI [15]: > 100 µM
TGI [53]: > 100 µM
TGI [17]: > 100 µM
TGI [18]: > 100 µM
TGI [19]: > 100 µM
TGI [20]: > 100 µM
TGI [54]: > 100 µM
TGI [21]: > 100 µM
TGI [22]: > 100 µM
TGI [24]: > 100 µM
TGI [25]: > 100 µM
TGI [26]: > 100 µM
TGI [27]: > 100 µM
TGI [28]: > 100 µM
TGI [29]: > 100 µM
TGI [55]: > 100 µM
TGI [56]: > 100 µM
TGI [30]: > 100 µM
TGI [31]: > 100 µM
TGI [57]: > 100 µM
TGI [32]: > 100 µM
TGI [33]: > 100 µM
TGI [34]: > 100 µM
TGI [35]: > 100 µM
TGI [36]: > 100 µM
TGI [37]: > 100 µM
TGI [38]: > 100 µM
TGI [58]: > 100 µM
TGI [40]: > 100 µM
TGI [41]: > 100 µM
TGI [42]: > 100 µM
TGI [43]: > 100 µM
TGI [44]: 76.5 µM
TGI [45]: > 100 µM
TGI [46]: > 100 µM
TGI [47]: > 100 µM
TGI [59]: > 100 µM
TGI [48]: > 100 µM
TGI [49]: > 100 µM
TGI [50]: > 100 µM
TGI [51]: > 100 µM
TGI [52]: > 100 µM
